Data reported in patent US8440708B2, “Triazole-substituted arylamides as P2X3 and P2X2/3 antagonists” (Roche Palo Alto LLC, priority 2007, dated 2013).

What was measured:
[1] = target: T1, human P2X2/3 receptor (Homo sapiens, UniProt P56373+Q9UBL9); experiment: P2X3/P2X2/3 FLIPR (Fluorometric Imaging Plate Reader) Assay, P2X2/3; format: cell-based; conditions: CHO-K1 cells transfected with human P2X2/3; agonist α,β-meATP 5 μM; Table 1; read-out: P2X2/3 pKi (converted)
T1 construct: expressed in transfected cells; host or cells: CHO-K1
T1 sequence (Q9UBL9 1-471): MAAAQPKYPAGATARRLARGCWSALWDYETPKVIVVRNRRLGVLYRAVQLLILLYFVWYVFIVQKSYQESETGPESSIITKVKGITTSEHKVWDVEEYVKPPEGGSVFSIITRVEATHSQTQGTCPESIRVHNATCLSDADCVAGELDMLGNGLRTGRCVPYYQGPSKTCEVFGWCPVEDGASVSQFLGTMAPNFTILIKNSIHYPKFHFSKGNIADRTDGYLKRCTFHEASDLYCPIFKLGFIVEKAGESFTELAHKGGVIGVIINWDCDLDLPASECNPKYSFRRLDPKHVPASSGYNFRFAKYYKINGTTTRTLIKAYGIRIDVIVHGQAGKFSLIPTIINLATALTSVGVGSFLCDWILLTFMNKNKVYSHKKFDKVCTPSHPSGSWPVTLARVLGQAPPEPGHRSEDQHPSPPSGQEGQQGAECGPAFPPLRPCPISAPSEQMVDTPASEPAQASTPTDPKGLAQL
T1 sequence (P56373 1-397): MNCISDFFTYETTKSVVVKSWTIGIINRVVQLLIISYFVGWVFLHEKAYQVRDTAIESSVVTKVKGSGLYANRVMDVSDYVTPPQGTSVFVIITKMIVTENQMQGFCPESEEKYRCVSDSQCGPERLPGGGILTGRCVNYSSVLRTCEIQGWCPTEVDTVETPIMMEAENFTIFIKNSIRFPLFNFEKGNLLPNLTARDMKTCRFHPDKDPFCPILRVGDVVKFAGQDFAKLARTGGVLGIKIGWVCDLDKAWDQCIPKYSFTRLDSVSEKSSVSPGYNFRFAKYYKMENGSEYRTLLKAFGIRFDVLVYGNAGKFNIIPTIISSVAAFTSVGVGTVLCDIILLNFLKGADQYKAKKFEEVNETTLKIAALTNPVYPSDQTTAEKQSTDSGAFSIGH
Procedure: (§1) P2X3/P2X2/3 FLIPR (Fluorometric Imaging Plate Reader) Assay
(§2) CHO-K1 cells were transfected with cloned rat P2X3 or human P2X2/3 receptor subunits and passaged in flasks. 18-24 hours before the FLIPR experiment, cells were released from their flasks, centrifuged, and resuspended in nutrient medium at 2.5×10^5 cells/ml. The cells were aliquoted into black-walled 96-well plates at a density of 50,000 cells/well and incubated overnight in 5% CO2 at 37° C. On the day of the experiment, cells were washed in FLIPR buffer (calcium- and magnesium-free Hank's balanced salt solution, 10 mM HEPES, 2 mM CaCl2, 2.5 mM probenecid; FB). Each well received 100 μl FB and 100 μl of the fluorescent dye Fluo-3 AM [2 μM final conc.]. After a 1 hour dye loading incubation at 37° C., the cells were washed 4 times with FB, and a final 75 μl/well FB was left in each well.
(§3) Test compounds (dissolved in DMSO at 10 mM and serially diluted with FB) or vehicle were added to each well (25 μl of a 4× solution) and allowed to equilibrate for 20 minutes at room temperature. The plates were then placed in the FLIPR and a baseline fluorescence measurement (excitation at 488 nm and emission at 510-570 nm) was obtained for 10 seconds before a 100 μl/well agonist or vehicle addition. The agonist was a 2× solution of α,β-meATP producing a final concentration of 1 μM (P2X3) or 5 μM (P2X2/3). Fluorescence was measured for an additional 2 minutes at 1 second intervals after agonist addition. A final addition of ionomycin (5 μM, final concentration) was made to each well of the FLIPR test plate to establish cell viability and maximum fluorescence of dye-bound cytosolic calcium. Peak fluorescence in response to the addition of α,β-meATP (in the absence and presence of test compounds) was measured and inhibition curves generated using nonlinear regression. PPADS, a standard P2X antagonist, was used as a positive control.

[2] = target: T2, rat P2X3 receptor (Rattus norvegicus, UniProt P49654); experiment: P2X3/P2X2/3 FLIPR (Fluorometric Imaging Plate Reader) Assay, P2X3; format: cell-based; conditions: CHO-K1 cells transfected with rat P2X3; agonist α,β-meATP 1 μM; Table 1; read-out: P2X3 pKi (converted)
T2 construct: expressed in transfected cells; host or cells: CHO-K1
T2 sequence (P49654 1-397): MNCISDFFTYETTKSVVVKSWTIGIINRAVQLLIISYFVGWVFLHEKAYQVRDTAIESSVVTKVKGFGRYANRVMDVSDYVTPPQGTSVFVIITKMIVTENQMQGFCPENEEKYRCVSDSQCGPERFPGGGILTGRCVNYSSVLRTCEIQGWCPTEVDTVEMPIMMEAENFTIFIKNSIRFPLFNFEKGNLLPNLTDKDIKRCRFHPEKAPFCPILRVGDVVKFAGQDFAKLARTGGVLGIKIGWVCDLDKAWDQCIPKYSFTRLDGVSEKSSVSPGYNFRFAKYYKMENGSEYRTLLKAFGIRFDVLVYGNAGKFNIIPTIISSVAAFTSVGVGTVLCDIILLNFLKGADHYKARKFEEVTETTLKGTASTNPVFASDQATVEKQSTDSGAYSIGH
Procedure: as §1, §2, §3

| SMILES | Ki [1] [nM] | Ki [2] [nM] |
| --- | --- | --- |
| Cc1ccc(-c2cc(C(=O)NCc3cnc(C)cn3)cc(-c3ncnn3C(C)C)c2)cc1 [Compound 137, 5-(2-Isopropyl-2H-[1,2,4]triazol-3-yl)-4′-methyl-biphenyl-3-carboxylic acid (5-methyl-pyrazin-2-ylmethyl)-amide] | 398 | 11.5 |
| COC[C@@H](C)NC(=O)c1cc(-c2ccc(C)cc2)cc(-n2ncnc2C(C)C)c1 [Compound 15, 5-(5-Isopropyl-[1,2,4]triazol-1-yl)-4′-methyl-biphenyl-3-carboxylic acid ((R)-2-methoxy-1-methyl-ethyl)-amide] | 813 | 10.2 |
| CC(C)c1ncnn1-c1cc(C(=O)N[C@@H](C)CO)cc(-c2ccc(Cl)cn2)c1 [Compound 122, 3-(5-Chloro-pyridin-2-yl)-N-((S)-2-hydroxy-1-methyl-ethyl)-5-(5-isopropyl-[1,2,4]triazol-1-yl)-benzamide] | 1290 | 19.1 |
| CCc1ncnn1-c1cc(C(=O)NCc2cnc(C)cn2)cc(-c2ccc(Cl)cn2)c1 [Compound 124, 3-(5-Chloro-pyridin-2-yl)-5-(5-ethyl-[1,2,4]triazol-1-yl)-N-(5-methyl-pyrazin-2-ylmethyl)-benzamide] | 1150 | 13.5 |
| Cc1ccc(-c2cc(C(=O)N[C@@H](C)CO)cc(-n3ncnc3C(C)N(C)C)c2)nc1 (stereo partly drawn) [Compound 140, 3-[5-(1-Dimethylamino-ethyl)-[1,2,4]triazol-1-yl]-N-((S)-2-hydroxy-1-methyl-ethyl)-5-(5-methyl-pyridin-2-yl)-benzamide] | 2750 | 20 |
| Cc1ccc(-c2cc(C(=O)N[C@H](C)CN3CCOCC3)cc(-n3ncnc3C(F)(F)F)c2)nc1 [Compound 179, N-((R)-1-Methyl-2-morpholin-4-yl-ethyl)-3-(5-methyl-pyridin-2-yl)-5-(5-trifluoromethyl-[1,2,4]triazol-1-yl)-benzamide] | 339 | 24.5 |
| Cc1cnc(CNC(=O)c2cc(-c3ccc(Cl)cn3)cc(-n3ncnc3C(F)(F)F)c2)cn1 [Compound 80, 3-(5-Chloro-pyridin-2-yl)-N-(5-methyl-pyrazin-2-ylmethyl)-5-(5-trifluoromethyl-[1,2,4]triazol-1-yl)-benzamide] | 275 | 8.91 |
| Cc1ccc(-c2cc(C(=O)N[C@@H](C)CO)cc(-n3nncc3C(C)C)c2)c(F)c1 [Compound 24, 2′-Fluoro-5-(5-isopropyl-[1,2,3]triazol-1-yl)-4′-methyl-biphenyl-3-carboxylic acid ((S)-2-hydroxy-1-methyl-ethyl)-amide] | 324 | 3.31 |
| CC(NC(=O)c1cc(-c2ccc(Cl)cn2)cc(-n2ncnc2C(C)(C)C)c1)c1cnccn1 (stereo not drawn) [Compound 83, 3-(5-tert-Butyl-[1,2,4]triazol-1-yl)-5-(5-chloro-pyridin-2-yl)-N-(1-pyrazin-2-yl-ethyl)-benzamide] | 115 | 12.3 |
| Cc1ccc(-c2cc(C(=O)NC(C)c3cnccn3)cc(-n3nncc3C(C)C)c2)cc1 (stereo not drawn) [Compound 12, 5-(5-Isopropyl-[1,2,3]triazol-1-yl)-4′-methyl-biphenyl-3-carboxylic acid (1-pyrazin-2-yl-ethyl)-amide] | 31.6 | 7.94 |
| Cc1ccc(-c2cc(C(=O)NCc3ccc(C)nn3)cc(-n3ncnc3C3CCC3)c2)nc1 [Compound 152, 3-(5-Cyclobutyl-[1,2,4]triazol-1-yl)-N-(6-methyl-pyridazin-3-ylmethyl)-5-(5-methyl-pyridin-2-yl)-benzamide] | 23.4 | 5.75 |
| Cc1ccc(-c2cc(C(=O)NC(C)c3cnccn3)cc(-n3nc(C)nc3C(C)C)c2)cc1 (stereo not drawn) [Compound 30, 5-(5-Isopropyl-3-methyl-[1,2,4]triazol-1-yl)-4′-methyl-biphenyl-3-carboxylic acid (1-pyrazin-2-yl-ethyl)-amide] | 135 | 4.57 |
| COC[C@@H](C)NC(=O)c1cc(-c2ccc(C)cc2F)cc(-n2ncnc2C(C)C)c1 [Compound 33, 2′-Fluoro-5-(5-isopropyl-[1,2,4]triazol-1-yl)-4′-methyl-biphenyl-3-carboxylic acid ((R)-2-methoxy-1-methyl-ethyl)-amide] | 1380 | 4.07 |
| Cc1ccc(-c2cc(C(=O)N[C@@H](C)CO)cc(-n3ncnc3C(C)C)c2)cc1 [Compound 17, 5-(5-Isopropyl-[1,2,4]triazol-1-yl)-4′-methyl-biphenyl-3-carboxylic acid ((S)-2-hydroxy-1-methyl-ethyl)-amide] | 141 | 2.88 |
| COCCc1ncnn1-c1cc(C(=O)NCc2cnc(C)cn2)cc(-c2ccc(C)cn2)c1 [Compound 147, 3-[5-(2-Methoxy-ethyl)-[1,2,4]triazol-1-yl]-N-(5-methyl-pyrazin-2-ylmethyl)-5-(5-methyl-pyridin-2-yl)-benzamide] | 2450 | 4.57 |
| Cc1ccc(-c2cc(C(=O)NC(C)CO)cc(-n3ncnc3C(C)C)c2)c(F)c1 (stereo not drawn) [Compound 34, 2′-Fluoro-5-(5-isopropyl-[1,2,4]triazol-1-yl)-4′-methyl-biphenyl-3-carboxylic acid (2-hydroxy-1-methyl-ethyl)-amide] | 427 | 3.24 |
| Cc1ccc(-c2cc(C(=O)NC(C)c3cnccn3)cc(-n3ncnc3C3CC3)c2)nc1 (stereo not drawn) [Compound 60, 3-(5-Cyclopropyl-[1,2,4]triazol-1-yl)-5-(5-methyl-pyridin-2-yl)-N-(1-pyrazin-2-yl-ethyl)-benzamide] | 389 | 19.1 |
| Cc1ccc(-c2cc(C(=O)NC(C)c3cnccn3)cc(-n3ncnc3C(C)(F)F)c2)nc1 (stereo not drawn) [Compound 70, 3-[5-(1,1-Difluoro-ethyl)-[1,2,4]triazol-1-yl]-5-(5-methyl-pyridin-2-yl)-N-(1-pyrazin-2-yl-ethyl)-benzamide] | 42.7 | 1.91 |
| Cc1ccc(-c2cc(C(=O)N[C@@H](C)CO)cc(-n3ncnc3CC(C)C)c2)nc1 [Compound 131, N-((S)-2-Hydroxy-1-methyl-ethyl)-3-(5-isobutyl-[1,2,4]triazol-1-yl)-5-(5-methyl-pyridin-2-yl)-benzamide] | 158 | 3.72 |
| Cc1ccc(-c2cc(-n3ncnc3C(F)(F)F)cc(C(=O)NCc3cnc(C)nc3)c2F)nc1 [Compound 178, 2-Fluoro-3-(5-methyl-pyridin-2-yl)-N-(2-methyl-pyrimidin-5-ylmethyl)-5-(5-trifluoromethyl-[1,2,4]triazol-1-yl)-benzamide] | 51.3 | 3.63 |
| Cc1ccc(-c2cc(-n3ncnc3C(F)(F)F)cc(C(=O)NCc3cnc(C)cn3)c2F)nc1 [Compound 169, 2-Fluoro-N-(5-methyl-pyrazin-2-ylmethyl)-3-(5-methyl-pyridin-2-yl)-5-(5-trifluoromethyl-[1,2,4]triazol-1-yl)-benzamide] | 95.5 | 4.27 |
